Laboratory results: US8518979B2, “Alpha-halo- and alpha-alkyl-cyclopropylcarboxy compounds and uses thereof” (Yissum Research Development Company of the Hebrew …, priority 2007, dated 2013)
“And” between values parts separate entries of the source, which are not always exact repeats. Identical values can stand only once. Like-named read-outs stand apart in the source and are kept apart here.

Experiments:
[1] = system: maximal electroshock induced seizures (tonic hind limb extension); details: cited from earlier work
[2] = system: metrazole induced clonic seizures; details: cited from earlier work; for protective index (TD50/ED50): comparison compounds, seizure model not stated
[3] = system: neuropathic pain; details: spinal nerve ligated rat models; cited from earlier work
[4] = system: minimal neurotoxicity; details: cited from earlier work
[5] = system: 6 Hz (32 mA) seizures; assay: Psychomotor seizure (6 Hz, 32 mA) assay in mice; type: in vivo; details: Mus musculus
[6] = system: minimal neurotoxicity; assay: Neurotoxicity (gait and stance assay, TD50) in rats; type: in vivo, rat; details: for Toxicity, fraction of rats: rat p.o, 50 mg/kg
Experimental: (§1) Neurotoxicity assays are design to assess the effect of putative neurotoxicants on the normal activity of the nervous system, which can adversely disrupt or cause neuronal death, and damage other parts of the nervous system. The median neurological toxic dose (TD50) is used for quantization of neurotoxicity.
The neurotixicity studies were conducted according to the protocol described in White, H. S., et al., in “General principles. Discovery and preclinical development of antiepileptic drugs”, 5th edition, Levy R H, Mattson R H, Meldrum B S, Perucca E. (editors); Antiepileptic drugs; Lippincott-Raven; Philadelphia: 2002. pp. 36-48.
Neurotoxicity of the α-halo-2,2,3,3-tetramethylcyclopropanecarboxy compounds of the present embodiments was assessed in rats treated therewith by oral administration and observed in the “gait and stance” assay, which assesses minimal neurotoxicity. The neurotoxicity studies were conducted according to the protocol described in White H S. et al., General principles-Discovery and preclinical development of antiepileptic drugs, in: Antiepileptic Drugs, 5th edition, R H Wilkins, Philadelphia 2002, pp. 36-48.

[7] = system: 6 Hz (44 mA) seizures; assay: Psychomotor seizure (6 Hz, 44 mA) assay in mice; type: in vivo; details: Mus musculus
[8] = system: hippocampal kindled seizures; assay: Hippocampal kindling assay in rats; type: in vivo; details: Rattus norvegicus
Experimental: In a third model, the hippocampal kindling assay was used to identify new drug candidates effective for the treatment of difficult-to-control seizure types, focal seizures and complex partial seizures, as well as compounds that may be effective as mood stabilizer for treating bipolar disorder, and was conducted according to the protocol described therein.
Briefly, this test was conducted by using a bipolar stimulating electrode which was implanted in the hippocampus of rats, and the rats were kindled according to a described method. One week after implantation of the electrodes, the rats were stimulated with supra-threshold trains of 200 μA and 50 Hz for 10 seconds every 30 minutes for 6 hours on alternate days until the animals were fully kindled. […] The behavioral seizures were scored according to the following criteria (“seizure score”): stage 1—mouth and facial clonus; stage 2—stage 1 plus head nodding; stage 3—stage 2 plus forelimb clonus; stage 4—stage 3 plus rearing; and stage 5—stage 4 plus repeated rearing and falling.

[9] = system: metrazole induced clonic seizures; assay: Subcutaneous metrazol seizure threshold test (scMet) in rats; details: for ED50: Rattus norvegicus; for Fraction of rats which responded to the treatment: scMet rat model; for ScMet, fraction of rats: rat p.o, 50 mg/kg
[10] = system: motor impairment; assay: Toxicity observed in mice (6 Hz 44 mA test line of Table 3); type: in vivo
From the text: as §1

[11] = system: maximal electroshock induced seizures (tonic hind limb extension); assay: Maximal electroshock seizure test (MES) in rats; type: in vivo; details: rat p.o, 50 mg/kg
[12] = system: teratogenicity; assay: Mouse model for VPA-induced teratogenicity; details: unpublished results
[13] = system: maximal electroshock induced seizures; details: mice models injected intraperitoneally; cited from earlier work
[14] = rat scMet models, literature comparison

For `CC1(C)C(C(=O)NC(N)=O)C1(C)C` [TMC-Urea, 2,2,3,3-tetramethylcyclopropanecarbonyl urea], the “protective index, TD50-to-ED50 ratio” value ([1]; maximal electroshock (MES) tests) is given as 18.5, the “protective index (TD50/ED50)” value [2] is given as 18.5 and the ED50 [2, 14] is given as 92 mg/kg.
For `CNC(=O)C1C(C)(C)C1(C)C` [Compound IV, N-methyl-2,2,3,3-tetramethylcyclopropanecarboxamide], the “potency as therapeutic for neuropathic pain” value [3] is given as “equipotent to GABApentin”, the “protective index (TD50/ED50)” value [2] is given as 2 and the neurotoxicity ([4]; rat, in vivo) is given as “non-neurotoxic”.
For `CC1(C)C(C)(C)C1(F)C(N)=O` [Compound 1, α-fluoro-2,2,3,3-tetramethylcyclopropanecarboxamide], the ED50 [5] was < 50 mg/kg and < 310 µmol/kg, the “Toxicity (TD50)” value ([6]; rats, oral administration) was 117 mg/kg and the ED50 [7] was ~50 mg/kg and ~310 µmol/kg. For the same molecule, the ED50 [8] was 29.5 mg/kg and 180 µmol/kg, the ED50 ([9]; po) was 6 mg/kg and 40 µmol/kg and the “protective index (TD50/ED50)” value ([9]; rat, in vivo, po) was 19.5. For the same molecule, the “Fraction of rats which responded to the treatment” value (from here on “Fraction of rats which responded”) ([9]; dose 2 mg/kg) was 0/8, the “Fraction of rats which responded” value ([9]; dose 6 mg/kg) was 5/8 and the “Fraction of rats which responded” value ([9]; dose 12.5 mg/kg) was 6/8. The “Fraction of rats which responded” value ([9]; dose 25 mg/kg) was 8/8 and the Toxicity [10] was “Minimal motor”.
For `CONC(=O)C1C(C)(C)C1(C)C` [Compound VI, N-methoxy-2,2,3,3-tetramethylcyclopropanecarboxamide], the ED50 ([1]; MES tests, rats injected intraperitoneally) is given as 57 mg/kg and the ED50 ([2]; scMet tests, rats injected intraperitoneally) is given as 9.8 mg/kg.
In the case of `CC1(C)C(C(=O)NCC(N)=O)C1(C)C` [N-2,2,3,3-tetramethylcyclopropylcarbonyl-glycinamide], the “protective index (TD50/ED50)” value [2] is given as “higher than 6.1”, the ED50 [2, 14] is given as “greater than 250 mg/kg” and the TD50 ([4]; oral administration to rats, literature comparison) is given as “above 500 mg/kg”.
In the case of `CC1(C)C(C)(C)C1(C)C(N)=O` [Compound 4, 1,2,2,3,3-pentamethylcyclopropanecarboxamide], the “Toxicity, fraction of rats” value ([6]; 0.25 hours after dosing) is reported as 0/4, the “Toxicity, fraction of rats” value ([6]; 0.5 hours after dosing) is reported as 0/4 and the “Toxicity, fraction of rats” value ([6]; 1.0 hours after dosing) is reported as 0/4. For the same molecule, the “Toxicity, fraction of rats” value ([6]; 2.0 hours after dosing) was 0/4, the “Toxicity, fraction of rats” value ([6]; 4.0 hours after dosing) was 0/4 and the ED50 ([9]; sc, read-out: ED50 (not determined quantitatively, estimated)) was less than 50 mg/kg. The “ScMet, fraction of rats” value ([9]; 0.25 hours after dosing) was 0/4, the “ScMet, fraction of rats” value ([9]; 0.5 hours after dosing) was 0/4 and the “ScMet, fraction of rats” value ([9]; 1.0 hours after dosing) was 1/4. The “ScMet, fraction of rats” value ([9]; 2.0 hours after dosing) was 1/4, the “ScMet, fraction of rats” value ([9]; 4.0 hours after dosing) was 0/4 and the “MES, fraction of rats” value ([11]; 0.25 hours after dosing) was 0/4. The “MES, fraction of rats” value ([11]; 0.5 hours after dosing) was 0/4, the “MES, fraction of rats” value ([11]; 1.0 hours after dosing) was 0/4 and the “MES, fraction of rats” value ([11]; 2.0 hours after dosing) was 0/4. The “MES, fraction of rats” value ([11]; 4.0 hours after dosing) was 0/4.
For `CC1(C)C(C(=O)Nc2nnc(S(N)(=O)=O)s2)C1(C)C` [Compound VII, N-(1,3,4-thiadiazole-2-sulfonamide)-2,2,3,3-tetramethylcyclopropanecarboxamide], the MES-ED50 ([1]; orally treated rat models) is listed as 9.2 mg/kg, the teratogenicity [12] is listed as “teratogenic” and the MES-ED50 [13] is listed as 17 mg/kg. The neurotoxicity ([4]; at 500 mg/kg doses) was “none-neurotoxic”.
